This test addresses T1, EZH2 (Homo sapiens, UniProt Q15910).
T1 construct: GRITS37108
The experiment in a line: EZH2 methyltransferase SPA assay (3H-SAM, Hela nucleosomes). It is filed as biochemical. The conditions noted are these: read-out: IC50.

We go through 19 compounds from patent US8637509B2, “Azaindazoles” (GlaxoSmithKline LLC, priority 2010, dated 2014).

In general, IC50 refers to the concentration needed to halve the response being measured.

T1 sequence (Q15910 whole entry): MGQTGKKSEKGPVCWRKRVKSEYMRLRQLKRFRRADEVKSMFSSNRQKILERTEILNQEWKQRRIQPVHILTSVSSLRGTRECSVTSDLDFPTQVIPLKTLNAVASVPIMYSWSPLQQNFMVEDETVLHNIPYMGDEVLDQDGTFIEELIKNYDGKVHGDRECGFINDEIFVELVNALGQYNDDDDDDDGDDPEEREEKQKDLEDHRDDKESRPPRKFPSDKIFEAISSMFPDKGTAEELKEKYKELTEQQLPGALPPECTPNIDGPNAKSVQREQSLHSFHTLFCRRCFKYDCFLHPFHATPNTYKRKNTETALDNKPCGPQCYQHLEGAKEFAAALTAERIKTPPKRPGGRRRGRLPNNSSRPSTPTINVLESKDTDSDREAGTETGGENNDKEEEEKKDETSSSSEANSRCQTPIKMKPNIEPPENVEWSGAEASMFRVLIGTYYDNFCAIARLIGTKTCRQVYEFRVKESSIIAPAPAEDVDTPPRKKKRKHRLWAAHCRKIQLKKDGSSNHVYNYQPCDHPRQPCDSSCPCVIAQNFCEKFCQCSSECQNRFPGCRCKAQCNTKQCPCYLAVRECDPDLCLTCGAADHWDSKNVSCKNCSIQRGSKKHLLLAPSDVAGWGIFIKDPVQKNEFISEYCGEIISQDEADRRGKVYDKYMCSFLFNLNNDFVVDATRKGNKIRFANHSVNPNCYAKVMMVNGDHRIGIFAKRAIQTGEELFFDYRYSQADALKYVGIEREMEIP
T1 sequence (O75530 whole entry partner): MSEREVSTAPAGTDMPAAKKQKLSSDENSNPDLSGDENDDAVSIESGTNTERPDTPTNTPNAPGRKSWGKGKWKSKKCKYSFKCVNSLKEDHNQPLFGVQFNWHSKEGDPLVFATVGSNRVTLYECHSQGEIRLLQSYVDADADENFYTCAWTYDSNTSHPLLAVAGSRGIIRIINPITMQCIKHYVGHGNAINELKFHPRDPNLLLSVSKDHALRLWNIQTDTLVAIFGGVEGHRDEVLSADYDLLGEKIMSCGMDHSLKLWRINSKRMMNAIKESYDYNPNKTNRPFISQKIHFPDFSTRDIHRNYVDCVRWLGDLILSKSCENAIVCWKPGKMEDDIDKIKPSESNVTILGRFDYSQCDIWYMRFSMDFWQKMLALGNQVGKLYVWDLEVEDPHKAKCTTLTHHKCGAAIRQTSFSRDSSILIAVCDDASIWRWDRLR
T1 sequence (Q15022 whole entry partner): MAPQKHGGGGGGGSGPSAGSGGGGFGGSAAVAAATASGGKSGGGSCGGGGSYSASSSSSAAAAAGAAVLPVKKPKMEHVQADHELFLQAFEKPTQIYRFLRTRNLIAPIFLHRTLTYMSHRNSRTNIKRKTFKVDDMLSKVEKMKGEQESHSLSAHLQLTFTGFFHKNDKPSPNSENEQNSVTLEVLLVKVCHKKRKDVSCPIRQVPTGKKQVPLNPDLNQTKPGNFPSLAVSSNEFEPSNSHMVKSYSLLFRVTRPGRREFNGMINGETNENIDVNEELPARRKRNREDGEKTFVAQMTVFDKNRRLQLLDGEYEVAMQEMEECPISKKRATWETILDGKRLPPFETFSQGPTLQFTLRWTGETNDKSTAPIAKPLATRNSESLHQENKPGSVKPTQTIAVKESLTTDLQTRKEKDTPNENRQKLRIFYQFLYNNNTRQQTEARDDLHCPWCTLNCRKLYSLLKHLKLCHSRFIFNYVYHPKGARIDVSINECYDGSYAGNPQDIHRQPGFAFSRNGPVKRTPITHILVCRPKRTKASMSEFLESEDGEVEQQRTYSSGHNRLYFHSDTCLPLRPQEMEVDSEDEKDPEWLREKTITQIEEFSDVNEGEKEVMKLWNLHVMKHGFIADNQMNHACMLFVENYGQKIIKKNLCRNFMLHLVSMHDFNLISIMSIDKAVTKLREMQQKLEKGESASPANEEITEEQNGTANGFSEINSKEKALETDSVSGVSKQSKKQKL

As for `Cc1cc(C)c(CNC(=O)c2cc(-c3cncc(NS(=O)(=O)c4ccccc4)c3)nc3c2cnn3C(C)C)c(=O)[nH]1` [Ex 65, N-[(4,6-Dimethyl-2-oxo-1,2-dihydro-3-pyridinyl)methyl]-1-(1-methylethyl)-6-{5-[(phenylsulfonyl)amino]-3-pyridinyl}-1H-pyrazolo[3,4-b]pyridine-4-carboxamide], the IC50 turned out to be 55 nM. To `Cc1cc(C)c(CNC(=O)c2cc(-c3ccnc(N4CCOCC4)c3)nc3c2cnn3C(C)C)c(=O)[nH]1` [Ex 66, N-[(4,6-Dimethyl-2-oxo-1,2-dihydro-3-pyridinyl)methyl]-1-(1-methylethyl)-6-[2-(4-morpholinyl)-4-pyridinyl]-1H-pyrazolo[3,4-b]pyridine-4-carboxamide] belongs 81 nM; to `Cc1cc(C)c(CNC(=O)c2cc(-c3ccc(N4CCOCC4)nc3)nc3c2cnn3C(C)C)c(=O)[nH]1` [Ex 67, N-[(4,6-Dimethyl-2-oxo-1,2-dihydro-3-pyridinyl)methyl]-1-(1-methylethyl)-6-[6-(4-morpholinyl)-3-pyridinyl]-1H-pyrazolo[3,4-b]pyridine-4-carboxamide], 58 nM.

For `COc1ccc(-c2cc(C(=O)NCc3c(C)cc(C)[nH]c3=O)c3cnn(C(C)C)c3n2)cn1` [Ex 68, N-[(4,6-Dimethyl-2-oxo-1,2-dihydro-3-pyridinyl)methyl]-1-(1-methylethyl)-6-[6-(methyloxy)-3-pyridinyl]-1H-pyrazolo[3,4-b]pyridine-4-carboxamide], the IC50 came to 76 nM. As for `CC(=O)Nc1ccc(-c2cc(C(=O)NCc3c(C)cc(C)[nH]c3=O)c3cnn(C(C)C)c3n2)cn1` [Ex 69, 6-[6-(Acetylamino)-3-pyridinyl]-N-[(4,6-dimethyl-2-oxo-1,2-dihydro-3-pyridinyl)methyl]-1-(1-methylethyl)-1H-pyrazolo[3,4-b]pyridine-4-carboxamide], the figure is 25 nM; as for `Cc1cc(C)c(CNC(=O)c2cc(-c3ccccc3C)nc3c2cnn3C(C)C)c(=O)[nH]1` [Ex 70, N-[(4,6-Dimethyl-2-oxo-1,2-dihydro-3-pyridinyl)methyl]-1-(1-methylethyl)-6-(2-methylphenyl)-1H-pyrazolo[3,4-b]pyridine-4-carboxamide], 1890 nM; as for `Cc1cc(C)c(CNC(=O)c2cc(-c3cn[nH]c3)nc3c2cnn3C(C)C)c(=O)[nH]1` [Ex 71, N-[(4,6-Dimethyl-2-oxo-1,2-dihydro-3-pyridinyl)methyl]-1-(1-methylethyl)-6-(1H-pyrazol-4-yl)-1H-pyrazolo[3,4-b]pyridine-4-carboxamide], 402 nM. To `Cc1cc(C)c(CNC(=O)c2cc(-c3cnc(N)nc3)nc3c2cnn3C(C)C)c(=O)[nH]1` [Ex 72, 6-(2-Amino-5-pyrimidinyl)-N-[(4,6-dimethyl-2-oxo-1,2-dihydro-3-pyridinyl)methyl]-1-(1-methylethyl)-1H-pyrazolo[3,4-b]pyridine-4-carboxamide] belongs 171 nM; to `Cc1cc(C)c(CNC(=O)c2cc(-c3cccnc3)nc3c2cnn3C(C)C)c(=O)[nH]1` [Ex 73, N-[(4,6-Dimethyl-2-oxo-1,2-dihydro-3-pyridinyl)methyl]-1-(1-methylethyl)-6-(3-pyridinyl)-1H-pyrazolo[3,4-b]pyridine-4-carboxamide], 533 nM; to `Cc1cc(C)c(CNC(=O)c2cc(-c3ccc4[nH]ncc4c3)nc3c2cnn3C(C)C)c(=O)[nH]1` [Ex 74, N-[(4,6-Dimethyl-2-oxo-1,2-dihydro-3-pyridinyl)methyl]-6-(1H-indazol-5-yl)-1-(1-methylethyl)-1H-pyrazolo[3,4-b]pyridine-4-carboxamide], 151 nM. To `Cc1cc(C)c(CNC(=O)c2cc(-c3ccc4cn[nH]c4c3)nc3c2cnn3C(C)C)c(=O)[nH]1` [Ex 75, N-[(4,6-Dimethyl-2-oxo-1,2-dihydro-3-pyridinyl)methyl]-6-(1H-indazol-6-yl)-1-(1-methylethyl)-1H-pyrazolo[3,4-b]pyridine-4-carboxamide] belongs 131 nM. Turning to `Cc1cc(C)c(CNC(=O)c2cc(-c3ccc4[nH]nnc4c3)nc3c2cnn3C(C)C)c(=O)[nH]1` [Ex 76, 6-(1H-1,2,3-Benzotriazol-5-yl)-N-[(4,6-dimethyl-2-oxo-1,2-dihydro-3-pyridinyl)methyl]-1-(1-methylethyl)-1H-pyrazolo[3,4-b]pyridine-4-carboxamide], the IC50 stood at 82 nM.

Consider `Cc1cc(C)c(CNC(=O)c2cc(-c3ccc4[nH]c(=O)[nH]c4c3)nc3c2c(C)nn3C(C)C)c(=O)[nH]1` [Ex 77, N-[(4,6-dimethyl-2-oxo-1,2-dihydro-3-pyridinyl)methyl]-3-methyl-1-(1-methylethyl)-6-(2-oxo-2,3-dihydro-1H-benzimidazol-5-yl)-1H-pyrazolo[3,4-b]pyridine-4-carboxamide], for which the half-maximal inhibitory concentration (IC50) turned out to be 52 nM. `Cc1cc(C)c(CNC(=O)c2cc(-c3ccc4c(c3)NC(=O)C4)nc3c2cnn3C(C)C)c(=O)[nH]1` [Ex 78, N-[(4,6-Dimethyl-2-oxo-1,2-dihydro-3-pyridinyl)methyl]-1-(1-methylethyl)-6-(2-oxo-2,3-dihydro-1H-indol-6-yl)-1H-pyrazolo[3,4-b]pyridine-4-carboxamide]: the IC50 came out at 43 nM. To `Cc1cc(C)c(CNC(=O)c2cc(-c3ccc4c(c3)CC(=O)N4)nc3c2cnn3C(C)C)c(=O)[nH]1` [Ex 79, N-[(4,6-Dimethyl-2-oxo-1,2-dihydro-3-pyridinyl)methyl]-1-(1-methylethyl)-6-(2-oxo-2,3-dihydro-1H-indol-5-yl)-1H-pyrazolo[3,4-b]pyridine-4-carboxamide] belongs 140 nM; to `Cc1cc(C)c(CNC(=O)c2cc(-c3ccc4[nH]c(=O)[nH]c4c3)nc3c2cnn3C(C)C)c(=O)[nH]1` [Ex 80, N-[(4,6-Dimethyl-2-oxo-1,2-dihydro-3-pyridinyl)methyl]-1-(1-methylethyl)-6-(2-oxo-2,3-dihydro-1H-benzimidazol-5-yl)-1H-pyrazolo[3,4-b]pyridine-4-carboxamide], 71 nM; to `Cc1cc(C)c(CNC(=O)c2cc(-c3ccc(N4CCOCC4)nc3)nc3c2c(C)nn3C(C)C)c(=O)[nH]1` [Ex 83, N-[(4,6-Dimethyl-2-oxo-1,2-dihydro-3-pyridinyl)methyl]-3-methyl-1-(1-methylethyl)-6-[6-(4-morpholinyl)-3-pyridinyl]-1H-pyrazolo[3,4-b]pyridine-4-carboxamide], 43 nM. To `Cc1cc(C)c(CNC(=O)c2cc(Nc3ccncc3)nc3c2cnn3C(C)C)c(=O)[nH]1` [Ex 84, N-[(4,6-Dimethyl-2-oxo-1,2-dihydro-3-pyridinyl)methyl]-1-(1-methylethyl)-6-(4-pyridinylamino)-1H-pyrazolo[3,4-b]pyridine-4-carboxamide] belongs 99 nM; to `Cc1cc(C)c(CNC(=O)c2cc(Nc3ccc4[nH]c(=O)[nH]c4c3)nc3c2cnn3C(C)C)c(=O)[nH]1` [Ex 85, N-[(4,6-Dimethyl-2-oxo-1,2-dihydro-3-pyridinyl)methyl]-1-(1-methylethyl)-6-[(2-oxo-2,3-dihydro-1H-benzimidazol-5-yl)amino]-1H-pyrazolo[3,4-b]pyridine-4-carboxamide], 31 nM.
